Test results as given in doi:10.1101/2025.02.02.636098v1 (biorxiv, 2025).

Columns and labels:
mFFA4 (mouse FFA4) [1] = biological target: T1, mFFA4 (mouse FFA4) (Mus musculus, UniProt Q7TMA4); test: bystander BRET arrestin-3 recruitment, HEK293T; format: cell-based
T1 sequence (Q7TMA4 1-361): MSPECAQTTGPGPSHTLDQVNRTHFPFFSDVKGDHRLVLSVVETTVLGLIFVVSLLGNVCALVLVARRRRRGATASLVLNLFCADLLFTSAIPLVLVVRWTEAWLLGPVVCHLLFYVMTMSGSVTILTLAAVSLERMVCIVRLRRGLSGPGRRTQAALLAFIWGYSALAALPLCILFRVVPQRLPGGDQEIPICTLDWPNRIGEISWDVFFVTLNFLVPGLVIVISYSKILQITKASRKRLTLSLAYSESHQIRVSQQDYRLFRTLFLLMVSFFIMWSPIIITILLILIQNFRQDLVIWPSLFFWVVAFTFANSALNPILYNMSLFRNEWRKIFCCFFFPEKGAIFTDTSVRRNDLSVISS

mFFA4 (mouse FFA4) [2] = biological target: T1, mFFA4 (mouse FFA4); test: Ca2+ mobilisation, Fura-2, Flp-In T-REx […]; format: cell-based

IC50 (mFFA4 (mouse FFA4) [1])	EC50 (mFFA4 (mouse FFA4) [2])	Compound
0.2 µM		Cc1ccc(S(=O)(=O)NC2c3ccccc3Oc3ccccc32)cc1 [AH7614, 4-Methyl-N-9H-xanthen-9-yl-benzenesulfonamide]
	10 µM	CC/C=C\C/C=C\C/C=C\CCCCCCCC(=O)O [aLA]
